Test results as given in ChEMBL document CHEMBL1135102, “2-Amino-7-deazaadenine forms stable base pairs with cytosine and thymine” (Bioorg Med Chem Lett, 2002).

Assays:
Format in all cases: ADME
[1] = Kinetic parameter Km was determined
[2] = Kinetic parameter Vmax was determined
[3] = Efficiency expressed as ratio of Vmax to that of Km was determined

SMILES | Km [1] | Vmax [2] | Ratio [3]
Nc1nc2c(ncn2[C@H]2C[C@H](O)[C@@H](COP(=O)(O)OP(=O)(O)OP(=O)(O)O)O2)c(=O)[nH]1 [DEOXYGUANOSINE TRIPHOSPHATE] | 62 µM | 13.1 pmol/U/min | 0.211
Nc1ncnc2c1ncn2[C@H]1C[C@H](O)[C@@H](COP(=O)(O)OP(=O)(O)OP(=O)(O)O)O1 | 22 µM | 0.994 pmol/U/min | 0.0452
Nc1ccn([C@H]2C[C@H](O)[C@@H](COP(=O)(O)OP(=O)(O)OP(=O)(O)O)O2)c(=O)n1 [DEOXYCYTIDINE TRIPHOSPHATE] | 25.6 µM | 18.7 pmol/U/min | 0.73
